# From PMC7904550, “Application of grouping and read-across for the evaluation of parabens of different chain lengths with a particular focus on endocrine properties” (Archives of Toxicology, 2021)
# Read-outs that look alike come from different tables or passages of the source. Marks after values point to notes of the source that are not given here.
# Tests used:
# [1] = test system: human oestrogen receptor α; parameters: method as in Watanabe et al. 2013; conditions: ref Watanabe et al. 2013, cited from earlier work
# bacteria = conditions: ref ECHA dissemination portal, cited from earlier work
# male rats = test system: male rats; parameters: method as in Hoberman et al. 2008; conditions: up to 10,000 ppm, corresponding to 1088 ± 68 mg/kg bw/day; ref Hoberman et al. 2008; cited from earlier work
# rats [2] = conditions: 5,000, 15,000 and 40,000 ppm in feed, ref Hubbard et al. 2020, cited from earlier work
# rabbits = test system: rabbits; parameters: method as in ECHA dissemination portal; conditions: acute dermal exposure, ref ECHA dissemination portal; cited from earlier work
# rats [3] = conditions: acute oral, ref ECHA dissemination portal, cited from earlier work
# rats [4] = conditions: cited from earlier work
# [5] = ref Yalkowsky and He (2003); cited from earlier work
# oestrogen receptors = test system: oestrogen receptors; parameters: method as in Byford et al. 2002; conditions: ref Byford et al. 2002; cited from earlier work
# rats [6] = conditions: cited from earlier work; remark: listed apart in the source
# in vivo = conditions: for concentration at 1 h / Tmax / AUC(0-t) / Cmax: Wistar, rat, in vivo; for Tmax / AUC(0-t) / Cmax: po; for AUC(0-t) / Cmax / AUC0-1 h/AUC0–t / C1h/Cmax / Clast / tlast: parent compound
# Method: These studies were conducted similarly to OECD TG 417 applying 500 and 1000 mg/kg body weight (bw) test item via oral gavage to 10 males and 10 females per dose group. Focus of the toxicokinetic evaluation was on the measurement of the serum concentrations of the parent compounds and their (common) major metabolite p-hydroxybenzoic acid by […] in order to assess the systemic uptake and elimination of the parent compounds and this major metabolite [see also ECHA ([2017a])]. The limit of quantification was determined as 10 ng/mL for all parabens, and as 130 ng/mL for p-hydroxybenzoic acid. […] On account of these major aims, investigations of the faeces and urine were not included in the toxicokinetics screening studies.
# Wistar rats = test system: Wistar rats; parameters: method as in Zhang et al. 2014; conditions: 400 and 1000 mg/kg bw/day oral gavage; ref Zhang et al. 2014; cited from earlier work
# [7] = parameters: method as in Hansch et al. (1995); conditions: ref Hansch et al. (1995); cited from earlier work
# rats [8] = conditions: cited from earlier work; remark: listed apart in the source
# rats [9] = conditions: cited from earlier work; remark: listed apart in the source
# [10] = Grouping and read-across of NOAEL (ECHA RAAF Scenario 5; analogue approach); conditions: for NOAEL for systemic repeated-dose toxicity and DART: predicted by read-across from the respective paraben (analogue approach)
# Text: The strength of evidence for the respective AEs was scored by the assessment options indicated in the RAAF ranging from Score 5 (acceptable with high confidence) to Score 1 (not acceptable) (ECHA [2017b]).
# [11] = ref Dymicky and Huhtanen (1979), cited in CIR (2008); cited from earlier work
# [12] = Octanol–water partition coefficient (Log Kow); assay type: physicochemical; conditions: 23 °C, OECD TG 107
# Text: (§1) Generally, these parabens have very similar physico-chemical properties.
# [13] = Acid dissociation constant (pKa); assay type: physicochemical
# Text: as §1
# mammalian cells = conditions: OECD 476; ref ECHA dissemination portal; cited from earlier work
# [14] = cited from earlier work
# [15] = test system: human oestrogen receptor β; parameters: method as in Watanabe et al. 2013; conditions: among 12 linear n-alkyl parabens C1 to C12; ref Watanabe et al. 2013; cited from earlier work
# [16] = sodium salt, read-across from the respective paraben
compound,measurement,setting,value
"C[C@]12CC[C@@H]3c4ccc(O)cc4CC[C@H]3[C@@H]1CC[C@@H]2O [17β-estradiol, reference compound]",Concentration of receptor effects,[1]; receptor subtype not stated,2.5 × 10^–12
"CCCCOC(=O)c1ccc(O)cc1 [Butyl paraben, Butyl 4-hydroxybenzoate]",Mutagenicity in bacteria classification,"bacteria; read-across from iso-butyl paraben, OECD 471",Not mutagenic (read-across; OECD 471; 2016) [a]
same,Effects in male rats,male rats,no effects
same,"Adverse alterations of fertility, fecundity, pubertal attainment or any reproductive parameters","rats [2]; parent, first, second generation",no association
same,Liver findings,rats [2],exposure-dependent increases in liver weight and incidences of non-neoplastic liver lesions
same,NOAEL,rabbits,[b] A further acute toxicity study was conducted as dermal exposure study in rabbits yielding NOAEL > 2000 mg/kg bw
same,LD50,"rats [3]; OECD 423, read-across from iso-butyl paraben","> 2000 (read across; OECD 423; 2018) [a, b] mg/kg bw"
same,Eye irritation/eye corrosion classification,"rats [4]; read-across from iso-butyl paraben, OECD 437, ref ECHA dissemination portal",Ser. eye damage (read-across; OECD 437; 2016) [a]
same,Water solubility,[5],Insoluble [e]
same,Rank of oestrogen receptor activation among shorter-chained parabens,oestrogen receptors,the most activation
same,Skin sensitisation classification,"rats [6]; read-across from iso-butyl paraben, OECD 429, ref ECHA dissemination portal",Not sensitising (read-across; OECD 429; 2016) [a]
same,concentration at 1 h,"in vivo; female, 500 mg/kg",31.5 ng/mL
same,concentration at 1 h,"in vivo; female, 1000 mg/kg",59.1 ng/mL
same,Tmax,"in vivo; female, 500 mg/kg",4.8 min
same,AUC(0-t),"in vivo; female, 500 mg/kg, AUC0-1 h",149 ng·h/mL
same,AUC(0-t),"in vivo; female, 500 mg/kg, AUC0–t",336 ng·h/mL
same,Cmax,"in vivo; female, 500 mg/kg",741 ng/mL
same,Tmax,"in vivo; female, 1000 mg/kg",4.8 min
same,AUC(0-t),"in vivo; female, 1000 mg/kg, AUC0-1 h",191 ng·h/mL
same,AUC(0-t),"in vivo; female, 1000 mg/kg, AUC0–t",404 ng·h/mL
same,Cmax,"in vivo; female, 1000 mg/kg",854 ng/mL
same,concentration at 1 h,"in vivo; male, 500 mg/kg",161 ng/mL
same,concentration at 1 h,"in vivo; male, 1000 mg/kg",373 ng/mL
same,AUC(0-t),"in vivo; male, 500 mg/kg, AUC0-1 h",300 ng·h/mL
same,AUC(0-t),"in vivo; male, 500 mg/kg, AUC0–t",705 ng·h/mL
same,Cmax,"in vivo; male, 500 mg/kg",1770 ng/mL
same,AUC(0-t),"in vivo; male, 1000 mg/kg, AUC0-1 h",860 ng·h/mL
same,AUC(0-t),"in vivo; male, 1000 mg/kg, AUC0–t",1580 ng·h/mL
same,Cmax,"in vivo; male, 1000 mg/kg",6520 ng/mL
same,Cmax,"in vivo; male, 1000 mg/kg, males",7000 ng/mL
same,AUC0-1 h/AUC0–t,"in vivo; 500 mg/kg, female",44%
same,C1h/Cmax,"in vivo; 500 mg/kg, female",4.3%
same,Clast,"in vivo; 500 mg/kg, female",23.9 ng/mL
same,tlast,"in vivo; 500 mg/kg, female",8.0 h
same,AUC0-1 h/AUC0–t,"in vivo; 500 mg/kg, male",43%
same,C1h/Cmax,"in vivo; 500 mg/kg, male",9.1%
same,Clast,"in vivo; 500 mg/kg, male",49.2 ng/mL
same,tlast,"in vivo; 500 mg/kg, male",8.0 h
same,AUC0-1 h/AUC0–t,"in vivo; 1000 mg/kg, female",47%
same,C1h/Cmax,"in vivo; 1000 mg/kg, female",6.9%
same,Clast,"in vivo; 1000 mg/kg, female",23.6 ng/mL
same,tlast,"in vivo; 1000 mg/kg, female",8.0 h
same,AUC0-1 h/AUC0–t,"in vivo; 1000 mg/kg, male",54%
same,C1h/Cmax,"in vivo; 1000 mg/kg, male",5.7%
same,Clast,"in vivo; 1000 mg/kg, male",18.4 ng/mL
same,tlast,"in vivo; 1000 mg/kg, male",8.0 h
same,Epididymal sperm count and daily sperm production,Wistar rats,dose-dependently reduced epididymal sperm count and daily sperm production
same,Log Kow,[7],3.54 [d]
same,"NOAEL, point-of-departure","rats [8]; derived from Zhang et al. (2014), ref CIR 2019",160 mg/kg bw/day
same,NOEL,"rats [8]; juvenile rats, subcutaneous, 17 days (PND 2-18), single dose tested (Fisher et al. 1999), ref SCCS 2010",2 mg/kg bw/day
same,Skin irritation/skin corrosion classification,"rats [9]; read-across from iso-butyl paraben, OECD 439, ref ECHA dissemination portal",Irritating (read-across; OECD 439; 2016) [a]
same,NOAEL for repeated-dose toxicity and DART,"[10]; extrapolation, appears justifiable",1000 mg/kg bw/day
same,pKa,[11],8.37 [c]
"CCOC(=O)c1ccc([O-])cc1.[Na+] [Na-ethyl paraben, Sodium ethyl 4-HBA]",Mutagenicity in bacteria classification,bacteria; [16],Not mutagenic (read-across from ethyl paraben)
same,LD50,"rats [3]; rats, OECD 401",3100 OECD 401; 1982) mg/kg bw
same,Eye irritation/eye corrosion classification,"rats [4]; rat, in vivo",Irritating (OECD 405; 1982)
same,Log Kow,[12]; pH 10.4,"-0.14 at 23 °C, pH 10.4 (OECD TG 107)"
same,Skin sensitisation classification,"rats [6]; rat, in vivo",Not sensitising (read-across from ethyl paraben)
same,Skin irritation/skin corrosion classification,"rats [9]; rat, in vivo",Not irritating (OECD 404; 1981)
same,NOAEL for systemic repeated-dose toxicity and DART,[10],1000 mg/kg bw/day
"COC(=O)c1ccc([O-])cc1.[Na+] [Na-methyl paraben, Sodium methyl 4-HBA]",pKa,[13],8.4 (OECD TG 112)
same,Mutagenicity in bacteria classification,bacteria; OECD 471,Not mutagenic [a] (OECD 471; 2012)
same,Mutagenicity in mammalian cells classification,mammalian cells,Not mutagenic [a] (OECD 476; 2012)
"CCCOC(=O)c1ccc([O-])cc1.[Na+] [Na-propyl paraben, Sodium propyl 4-HBA]",Mutagenicity in bacteria classification,bacteria; [16],Not mutagenic (read-across from propyl paraben)
same,LD50,"rats [3]; rats, OECD 401",> 5000 OECD 401; 1982) mg/kg bw
same,Eye irritation/eye corrosion classification,"rats [4]; rat, in vivo",Serious eye damage (OECD 405; 1983)
same,Log Kow,[12]; pH 10.8,"0.27 at 23 °C, pH 10.8 (OECD TG 107)"
same,Skin irritation/skin corrosion classification,"rats [9]; rat, in vivo",Not irritating (OECD 404; 1982)
same,NOAEL for systemic repeated-dose toxicity and DART,[10],1000 mg/kg bw/day
CCCCCCCOC(=O)c1ccc(O)cc1 [heptyl paraben],Concentration of highest potency in activating the receptor,[1]; among 12 linear n-alkyl parabens C1 to C12,10^–7 M
O=C(O)c1ccc(O)cc1 [p-hydroxybenzoic acid],Systemic toxicity and DART,[14]; ref ECHA registration dossier 15944,no systemic toxicity and no DART
same,Endocrine activity,"[14]; substance evaluation, REACH Article 48, ref ECHA 2014",does not exhibit any endocrine activity
CCCCCOC(=O)c1ccc(O)cc1 [pentyl paraben],Concentration of highest potency in activating the receptor,[15],10^–8 M
